# Measurements from patent publication US20260306496A1, “CDK2 INHIBITOR PYRAZOLOPYRIMIDINE COMPOUNDS” (ALEKSIA THERAPEUTICS, INC., priority 2023, published 2026).
# Biological target: CDK2/CCNE1 (Homo sapiens, UniProt P24941)
# Test: CDK2 homogeneous time-resolved fluorescence (HTRF) assay
# Assay type: biochemical
# Settings: 3 nM CDK2/CCNE1, 1 mM ATP, 50 nM ULight-eIF4E-binding protein 1 (Thr37/46) peptide, 60 min at 23° C.; read-out: CDK2/CCNE IC50 <25 nM
# Procedure: A CDK homogeneous time-resolved fluorescence (HTRF) assay was used to assess the potency of the compounds described herein.
# To an untreated 384-well microtiter plate (ProxiPlate) was added 100 nL 100× test compound in DMSO and 5 μL 2×CDK enzyme in assay buffer (50 mM HEPES, 1 mM EGTA, 10 mM MgCl2, 0.01% Tween 20, 2 mM DTT). The plate was centrifuged at 800 RPM for 1 min then incubated for 20 min at 23° C. 2.5 μL per well of 4×ATP and 2.5 μL 4×ULight™-eIF4E-binding protein 1 (Thr37/46) Peptide) substrate were added to all wells. After addition, the plates were centrifuged at 800 RPM for 1 min. The plates were incubated at 23° C. for 60 min. 5 μL per well 3×EDTA solution were added to each well to stop the reaction. 2.5 μL 7×LANCE Ultra Europium-anti-phospho-eTF4E-binding protein 1 (Thr37/46 antibody) were added to each well and the plate was centrifuged for 1 min at 800 RPM. The plate was incubated for 60 min at 23° C. Fluorescence was read at 340 nm excitation and 665 nm emission on an EnVision 2105 fluorescence reader. The final concentrations of reagents in the activity assay were 3 nM CDK2/CCNE1, 1 mM ATP, 50 nM ULight™-eIF4E-binding protein 1 (Thr37/46) Peptide substrate, 1% DMSO, 10 mM EDTA, and 2 nM LANCE Ultra Europium-anti-phospho-eTF4E-binding protein 1 (Thr37/46).
# Dose-response titrations were conducted by using an 11-point, three-fold serial dilution scheme typically starting at 1 μM. Signals were reported as fluorescence units at 665 nm or the ratio of fluorescence units at 665 nm/fluorescence units at 615 nm. Signals are referred to below as “Lance signals”.
# Using this assay, the IC50 values of example compounds were determined.
row,SMILES,IC50 [nM]
1,"CN[C@H]1CC[C@@H](Cn2ncc3cnc(Nc4ccc(S(C)(=O)=O)cc4)nc32)CC1 [Compound 45, 1-(((1s,4s)-4-(methylamino)cyclohexyl)methyl)-N-(4-(methylsulfonyl)phenyl)-1H-pyrazolo[3,4-d]pyrimidin-6-amine]",< 25
2,"CS(=O)(=O)c1ccc(Nc2ncc3cnn([C@@H]4CCC[C@@H](C#N)C4)c3n2)cc1 [Compound 46, (1R,3R)-3-(6-((4-(methylsulfonyl)phenyl)amino)-1H-pyrazolo[3,4-d]pyrimidin-1-yl)cyclohexane-1-carbonitrile]",< 25
3,"CS(=O)(=O)c1ccc(Nc2ncc3cnn(C[C@H]4CC[C@@H](CCl)CC4)c3n2)cc1 [Compound 49, 1-(((1S,4S)-4-(chloromethyl)cyclohexyl)methyl)-N-(4-(methylsulfonyl)phenyl)-1H-pyrazolo[3,4-d]pyrimidin-6-amine]",< 25
4,"CS(=O)(=O)c1ccc(Nc2ncc3cnn([C@@H]4CCC[C@@H](O)C4)c3n2)cc1 [Compound 51, (1R,3R)-3-(6-((4-(methylsulfonyl)phenyl)amino)-1H-pyrazolo[3,4-d]pyrimidin-1-yl)cyclohexan-1-ol]",< 25

# Same assay, conditions: 3 nM CDK2/CCNE1, 1 mM ATP, 50 nM ULight-eIF4E-binding protein 1 (Thr37/46) peptide, 60 min at 23° C.; read-out: CDK2/CCNE IC50 >150 nM
row,SMILES,IC50 [nM]
1,"CC#CS(=O)(=O)c1ccc(Nc2ncc3cnn(CC4CCCCC4)c3n2)cc1 [Compound 43, 1-(cyclohexylmethyl)-N-(4-(prop-1-yn-1-ylsulfonyl)phenyl)-1H-pyrazolo[3,4-d]pyrimidin-6-amine]",> 150
2,"C=CC(=O)c1ccc(Nc2ncc3cnn(CC4CCCCC4)c3n2)cc1 [Compound 44, 1-(4-((1-(cyclohexylmethyl)-1H-pyrazolo[3,4-d]pyrimidin-6-yl)amino)phenyl)prop-2-en-1-one]",> 150
3,"CS(=O)(=O)c1ccc(Nc2ncc3cnn([C@@H]4CC[C@@H](C#N)C4)c3n2)cc1 [Compound 47, (1R,3R)-3-(6-((4-(methylsulfonyl)phenyl)amino)-1H-pyrazolo[3,4-d]pyrimidin-1-yl)cyclopentane-1-carbonitrile]",> 150
4,"CS(=O)(=O)c1ccc(Nc2ncc3cnn(C[C@H]4CC[C@H](CCl)CC4)c3n2)cc1 [Compound 48, 1-(((1R,4R)-4-(chloromethyl)cyclohexyl)methyl)-N-(4-(methylsulfonyl)phenyl)-1H-pyrazolo[3,4-d]pyrimidin-6-amine]",> 150
5,"CS(=O)(=O)c1ccc(Nc2ncc3cnn(C[C@@H]4CCC(=O)N4)c3n2)cc1 [Compound 57, (S)-5-((6-((4-(methylsulfonyl)phenyl)amino)-1H-pyrazolo[3,4-d]pyrimidin-1-yl)methyl)pyrrolidin-2-one]",> 150
6,"CS(=O)(=O)c1ccc(Nc2ncc3cnn(CCc4ccccc4)c3n2)cc1 [Compound 62, N-(4-(methylsulfonyl)phenyl)-1-phenethyl-1H-pyrazolo[3,4-d]pyrimidin-6-amine]",> 150
7,"CS(=O)(=O)c1ccc(Nc2ncc3cnn(CC4CCOCC4)c3n2)cc1 [Compound 63, N-(4-(methylsulfonyl)phenyl)-1-((tetrahydro-2H-pyran-4-yl)methyl)-1H-pyrazolo[3,4-d]pyrimidin-6-amine]",> 150
8,"CS(=O)(=O)c1ccc(Nc2ncc3cnn(CC4CCCCC4)c3n2)cc1C(F)(F)F [Compound 79, 1-(cyclohexylmethyl)-N-(4-(methylsulfonyl)-3-(trifluoromethyl)phenyl)-1H-pyrazolo[3,4-d]pyrimidin-6-amine]",> 150
9,"CS(=O)(=O)c1ccc(Nc2ncc3cnn(CC4CCCCC4)c3n2)cc1F [Compound 80, 1-(cyclohexylmethyl)-N-(3-fluoro-4-(methylsulfonyl)phenyl)-1H-pyrazolo[3,4-d]pyrimidin-6-amine]",> 150
10,"Cn1cc2cc(-n3ncc4cnc(Nc5ccc(S(C)(=O)=O)cc5)nc43)ccc2n1 [Compound 82, 1-(2-methyl-2H-indazol-5-yl)-N-(4-(methylsulfonyl)phenyl)-1H-pyrazolo[3,4-d]pyrimidin-6-amine]",> 150
11,"CN(CCO)[C@H]1CC[C@H](Cn2ncc3cnc(Nc4ccc(S(C)(=O)=O)cc4)nc32)CC1 [Compound 84, 2-(methyl((1r,4r)-4-((6-((4-(methylsulfonyl)phenyl)amino)-1H-pyrazolo[3,4-d]pyrimidin-1-yl)methyl)cyclohexyl)amino)ethan-1-ol]",> 150

# Same assay, conditions: column 25-150 nM; 3 nM CDK2/CCNE1, 1 mM ATP, 50 nM ULight-eIF4E-binding protein 1 (Thr37/46) peptide, 60 min at 23° C.; read-out: CDK2/CCNE IC50 25-150 nM
row,SMILES,IC50 [nM]
1,"CS(=O)(=O)c1ccc(Nc2ncc3cnn([C@@H]4CC[C@@H](O)C4)c3n2)cc1 [Compound 50, (1R,3R)-3-(6-((4-(methylsulfonyl)phenyl)amino)-1H-pyrazolo[3,4-d]pyrimidin-1-yl)cyclopentan-1-o1]",25 to 150
2,"CS(=O)(=O)c1ccc(Nc2ncc3cnn([C@@H]4CCC[C@H](C#N)C4)c3n2)cc1 [Compound 52, (1S,3R)-3-(6-((4-(methylsulfonyl)phenyl)amino)-1H-pyrazolo[3,4-d]pyrimidin-1-yl)cyclohexane-1-carbonitrile]",25 to 150
3,"CS(=O)(=O)c1ccc(Nc2ncc3cnn(C4CCC(=O)CC4)c3n2)cc1 [Compound 53, 4-(6-((4-(methylsulfonyl)phenyl)amino)-1H-pyrazolo[3,4-d]pyrimidin-1-yl)cyclohexan-1-one]",25 to 150
4,"OCc1cc(Nc2ncc3cnn(CC4CCCCC4)c3n2)ccc1O [Compound 55, 4-((1-(cyclohexylmethyl)-1H-pyrazolo[3,4-d]pyrimidin-6-yl)amino)-2-(hydroxymethyl)phenol]",25 to 150
5,"CN(C)[C@H]1CC[C@@H](Cn2ncc3cnc(NC4CCN(S(C)(=O)=O)CC4)nc32)CC1 [Compound 56, 1-(((1S,4S)-4-(dimethylamino)cyclohexyl)methyl)-N-(1-(methylsulfonyl)piperidin-4-yl)-1H-pyrazolo[3,4-d]pyrimidin-6-amine]",25 to 150
6,"CCN(C)[C@H]1CC[C@@H](Cn2ncc3cnc(Nc4ccc(S(C)(=O)=O)cc4)nc32)CC1 [Compound 75, 1-(((1s,4s)-4-(ethyl(methyl)amino)cyclohexyl)methyl)-N-(4-(methylsulfonyl)phenyl)-1H-pyrazolo[3,4-d]pyrimidin-6-amine]",25 to 150
7,"CS(=O)(=O)c1ccc(Nc2ncc3cnn(-c4ccc5cn[nH]c5c4)c3n2)cc1 [Compound 76, 1-(1H-indazol-6-yl)-N-(4-(methylsulfonyl)phenyl)-1H-pyrazolo[3,4-d]pyrimidin-6-amine]",25 to 150
8,"Cn1ncc2cc(-n3ncc4cnc(Nc5ccc(S(C)(=O)=O)cc5)nc43)ccc21 [Compound 81, 1-(1-methyl-1H-indazol-5-yl)-N-(4-(methylsulfonyl)phenyl)-1H-pyrazolo[3,4-d]pyrimidin-6-amine]",25 to 150
